Assay type in all cases: biochemical
The target in experiment [1] is T1, recombinant PRL-1 (Homo sapiens, UniProt Q93096).
T1 construct: 6xHis (N, cleaved yes); made in house; host or cells: E. coli One Shot BL21 Star
T1 sequence (Q93096 1-173): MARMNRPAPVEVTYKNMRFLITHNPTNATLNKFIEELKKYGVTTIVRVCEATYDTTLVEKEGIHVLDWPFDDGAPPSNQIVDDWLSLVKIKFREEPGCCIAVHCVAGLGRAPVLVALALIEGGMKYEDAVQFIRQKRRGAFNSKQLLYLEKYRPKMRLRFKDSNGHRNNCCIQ
In words: In vitro phosphatase assay (DiFMUP hydrolysis), PRL-1. Note: test concentration or dose not given here.

Experiment [2] deals with T2, recombinant PRL-2 (Homo sapiens, UniProt Q12974).
T2 construct: 6xHis (N, cleaved yes); made in house; host or cells: E. coli One Shot BL21 Star
T2 sequence (Q12974 1-167): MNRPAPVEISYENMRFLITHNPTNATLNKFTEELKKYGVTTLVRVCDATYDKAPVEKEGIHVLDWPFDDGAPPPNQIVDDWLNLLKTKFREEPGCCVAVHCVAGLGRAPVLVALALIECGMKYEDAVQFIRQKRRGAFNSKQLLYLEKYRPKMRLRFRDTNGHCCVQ
In words: In vitro phosphatase assay (DiFMUP hydrolysis), PRL-2.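 Note: PRL-2 activity read as DiFMUP hydrolysis after 20 min at room temperature with drug, enzyme first pre-reduced at 4 °C for 20 min.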

Experiment [3] concerns the target T3, recombinant PRL-3 (Homo sapiens, UniProt O75365).
T3 construct: 6xHis (N, cleaved yes); made in house; host or cells: E. coli One Shot BL21 Star
In words: In vitro phosphatase assay (DiFMUP hydrolysis), PRL-3. Note: test concentration or dose not given here.

The mark [4] stands for this setting: FDA-approved drug screen, compared to DMSO.

This note sets out measurements from PMC8119466, “A screen of FDA-approved drugs identifies inhibitors of protein tyrosine phosphatase 4A3 (PTP4A3 or PRL-3)” (Scientific Reports, 2021).

Molecules are shown by their SMILES. Where a name gives a salt, the structure may show the parent alone. Read-outs that look alike come from different tables or passages of the source.

T3 sequence (O75365 whole entry): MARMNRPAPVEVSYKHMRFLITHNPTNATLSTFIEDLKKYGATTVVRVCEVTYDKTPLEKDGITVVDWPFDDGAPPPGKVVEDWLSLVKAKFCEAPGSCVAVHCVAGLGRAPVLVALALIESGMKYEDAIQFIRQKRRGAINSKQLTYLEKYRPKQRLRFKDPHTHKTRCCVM

As to `O=C(NC[C@H]1CN(c2ccc(N3CCOCC3=O)cc2)C(=O)O1)c1ccc(Cl)s1` [Rivaroxaban], in experiment [1] (setting [4]), the “% Phosphatase Activity (compared to DMSO) PRL-1” value is 98%. In addition, the “% Phosphatase Activity (compared to DMSO) PRL-2” value in experiment [2] (setting [4]) came to 106%. The “% Phosphatase Activity (compared to DMSO) PRL-3” value in experiment [3] (setting [4]) is given as 92%.

On to `CCN(C)C(=O)Oc1cccc([C@H](C)N(C)C)c1` [Rivastigmine Tartrate], for which, in experiment [1] (setting [4]), the “% Phosphatase Activity (compared to DMSO) PRL-1” value is on record as 95%. Moreover, in experiment [2] (setting [4]), the “% Phosphatase Activity (compared to DMSO) PRL-2” value worked out at 107%. The “% Phosphatase Activity (compared to DMSO) PRL-3” value in experiment [3] (setting [4]) came to 79%.

For the compound `CCN(C)C(=O)Oc1cccc([C@H](C)N(C)C)c1` [Rivastigmine], the “% Phosphatase Activity (compared to DMSO) PRL-1” value in experiment [1] (setting [4]) came to 98%. Further, the “% Phosphatase Activity (compared to DMSO) PRL-2” value in experiment [2] (setting [4]) worked out at 94%. For the same compound, the “% Phosphatase Activity (compared to DMSO) PRL-3” value in experiment [3] (setting [4]) stood at 92%.

For the compound `CN(C)CCc1c[nH]c2ccc(Cn3cncn3)cc12` [Rizatriptan Benzoate], in experiment [1] (setting [4]), the “% Phosphatase Activity (compared to DMSO) PRL-1” value came to 98%. For the same compound, the “% Phosphatase Activity (compared to DMSO) PRL-2” value in experiment [2] (setting [4]) was determined as 103%. Further, in experiment [3] (setting [4]), the “% Phosphatase Activity (compared to DMSO) PRL-3” value turned out to be 90%.

Take `O=C(CCCCCCNC(=O)c1cnc(N(c2ccccc2)c2ccccc2)nc1)NO` [Rocilinostat (ACY-1215)]: in experiment [1] (setting [4]), the “% Phosphatase Activity (compared to DMSO) PRL-1” value is recorded as 102%. For the same compound, the “% Phosphatase Activity (compared to DMSO) PRL-2” value in experiment [2] (setting [4]) came to 98%. In addition, the “% Phosphatase Activity (compared to DMSO) PRL-3” value in experiment [3] (setting [4]) was found to be 97%.

As to `C=CC[N+]1([C@H]2C[C@H]3[C@@H]4CC[C@H]5C[C@H](O)[C@@H](N6CCOCC6)C[C@]5(C)[C@H]4CC[C@]3(C)[C@H]2OC(C)=O)CCCC1` [Rocuronium Bromide], the “% Phosphatase Activity (compared to DMSO) PRL-1” value in experiment [1] (setting [4]) turned out to be 100%. The “% Phosphatase Activity (compared to DMSO) PRL-2” value in experiment [2] (setting [4]) is on record as 106%. For the same compound, the “% Phosphatase Activity (compared to DMSO) PRL-3” value in experiment [3] (setting [4]) is listed as 90%.

As for `CS(=O)(=O)c1ccc(C2=C(c3ccccc3)C(=O)OC2)cc1` [Rofecoxib], in experiment [1] (setting [4]), the “% Phosphatase Activity (compared to DMSO) PRL-1” value came to 110%. Further, the “% Phosphatase Activity (compared to DMSO) PRL-2” value in experiment [2] (setting [4]) is given as 120%. Moreover, the “% Phosphatase Activity (compared to DMSO) PRL-3” value in experiment [3] (setting [4]) is listed as 92%.

`O=C(Nc1c(Cl)cncc1Cl)c1ccc(OC(F)F)c(OCC2CC2)c1` [Roflumilast]: in experiment [1] (setting [4]), the “% Phosphatase Activity (compared to DMSO) PRL-1” value was found to be 107%. Further, the “% Phosphatase Activity (compared to DMSO) PRL-2” value in experiment [2] (setting [4]) was determined as 101%. Further, in experiment [3] (setting [4]), the “% Phosphatase Activity (compared to DMSO) PRL-3” value was 87%.

`COc1ccc(C2CNC(=O)C2)cc1OC1CCCC1` (stereo not drawn) [Rolipram]: the “% Phosphatase Activity (compared to DMSO) PRL-1” value in experiment [1] (setting [4]) amounted to 99%. Moreover, in experiment [2] (setting [4]), the “% Phosphatase Activity (compared to DMSO) PRL-2” value came out at 104%. The “% Phosphatase Activity (compared to DMSO) PRL-3” value in experiment [3] (setting [4]) amounted to 77%.

For `Cn1c([N+](=O)[O-])cnc1COC(N)=O` [Ronidazole], the “% Phosphatase Activity (compared to DMSO) PRL-1” value in experiment [1] (setting [4]) was 86%. Further, the “% Phosphatase Activity (compared to DMSO) PRL-2” value in experiment [2] (setting [4]) was 95%. Besides, in experiment [3] (setting [4]), the “% Phosphatase Activity (compared to DMSO) PRL-3” value came out at 62%.

`CCCN(CCC)CCc1cccc2c1CC(=O)N2` [Ropinirole HCl]: in experiment [1] (setting [4]), the “% Phosphatase Activity (compared to DMSO) PRL-1” value was determined as 103%. The “% Phosphatase Activity (compared to DMSO) PRL-2” value in experiment [2] (setting [4]) is on record as 122%. Further, the “% Phosphatase Activity (compared to DMSO) PRL-3” value in experiment [3] (setting [4]) is given as 78%.

With `CCCN1CCCC[C@H]1C(=O)Nc1c(C)cccc1C` [Ropivacaine HCl], in experiment [1] (setting [4]), the “% Phosphatase Activity (compared to DMSO) PRL-1” value is on record as 100%. Moreover, the “% Phosphatase Activity (compared to DMSO) PRL-2” value in experiment [2] (setting [4]) is 110%. Further, in experiment [3] (setting [4]), the “% Phosphatase Activity (compared to DMSO) PRL-3” value is on record as 80%.

As to `CC[C@H](CO)Nc1nc(NCc2ccccc2)c2ncn(C(C)C)c2n1` [Roscovitine (Seliciclib,CYC202)], the “% Phosphatase Activity (compared to DMSO) PRL-1” value in experiment [1] worked out at 108%. Further, the “% Phosphatase Activity (compared to DMSO) PRL-2” value in experiment [2] came out at 111%. In experiment [3], the “% Phosphatase Activity (compared to DMSO) PRL-3” value worked out at 96%.

Consider `CN(CCOc1ccc(CC2SC(=O)NC2=O)cc1)c1ccccn1.Cl` (stereo not drawn) [Rosiglitazone HCl], for which the “% Phosphatase Activity (compared to DMSO) PRL-1” value in experiment [1] (setting [4]) is given as 103%. Moreover, in experiment [2] (setting [4]), the “% Phosphatase Activity (compared to DMSO) PRL-2” value is given as 116%. Further, in experiment [3] (setting [4]), the “% Phosphatase Activity (compared to DMSO) PRL-3” value amounted to 79%.

With `CN(CCOc1ccc(CC2SC(=O)NC2=O)cc1)c1ccccn1` (stereo not drawn) [Rosiglitazone maleate], in experiment [1] (setting [4]), the “% Phosphatase Activity (compared to DMSO) PRL-1” value is on record as 104%. The “% Phosphatase Activity (compared to DMSO) PRL-2” value in experiment [2] (setting [4]) is 113%. The “% Phosphatase Activity (compared to DMSO) PRL-3” value in experiment [3] (setting [4]) worked out at 87%.
